# Laboratory results as given in US20050037436A1, “Test systems and the use thereof for identifying and characterizing compounds” (priority 2000, published 2005).
# “Also recorded” adds a separate entry of the source. Read-outs that look alike come from different tables or passages of the source.
# Legend:
# [1] = molecular target: T1, mouse β2-adrenergic receptor (Mus musculus, UniProt P18762); experiment: Ca2+ imaging of HEK-293 cells transfected with β2-R-GFP (control); format: cell-based; settings: BAY 44-4400 present
# T1 construct: was fused with a C-terminal EGFP tag by amplifying the full-length cDNA with the P117 mouse 2AR XhoI 5′ primer; expressed in transfected cells; host or cells: HEK-293, transient (pEGFP-N3)
# Experimental: (§1) The intracellular free Ca^2+ concentration [Ca^2+]i was measured in COS-7 and HEK293 cells transiently transfected with the HC110-R-EGFP or β2-AR-EGFP construct using the calcium imaging method (see also FIG. 11). In each case 2×10^5 COS-7 and HEK293 cells were applied to a 42 mm cover glass coated with 1% gelatine in 55 mm tissue culture dishes with 5 ml of DMEM medium (with 10% FCS and pen/strep). The transfection took place with the aid of the non-liposomal transfection reagent FuGENE 6 (Roche Molecular Biochemicals, Mannheim). […] Constructs of the HC110-R full-length clone with a GFP tag fused in the correct reading frame, and the complete cDNA of the β2-adrenergic receptor which had likewise been provided with a GFP tag at the 3′ end, were transfected.
# (§2) After the incubation, the cells loaded with Fura-2/AM were examined under an inverted microscope (Zeiss, Axiovert, Germany) and, in parallel with this, in a digital imaging fluorescence microscope (PTI) and differentiated into transfected and untransfected cells at a wavelength of 440 and 490 nm respectively. On average, 5-7 transfected and non transfected cells were selected by fixing an ROI (region of interest). The extinction was measured at 340 nm (calcium-bound Fura-2/AM) and 380 nm (free Fura-2/AM), and the emission was measured at 510 nm. Evaluation took place using the Image Master 1.x software by forming the quotient of 340:510 nm, 380:510 nm and the ratio of 340/380:510 nm (background corrected images) as a function of the agent added.
# Agents were always added 6 min after starting the measurement by removing an appropriate volume of Na^+ HBS buffer and pipetting the agent directly into the sample vessel for a further 30 to 50 min. The total volume in the sample vessel was constant at 1.5 ml throughout the experiment. […] Addition of CdCl2 and nifedipine took place immediately at the start of the experiment and before addition of α-LTX, and EGTA was added both at the start of the experiment and 4 min after the addition of α-LTX. […]
# The data were analyzed using the Excel 98 table calculation programme. […]
# nematodes = experiment: Anthelmintic / neuropharmacological activity on nematodes
# HC110-R = format: cell-based, Haemonchus contortus; settings: for Ca2+ response to substance alone: 400 ng/ml where stated, up to 50 min or 90 min preincubation
# Experimental: as §1, §2
# Agents were always added 6 min after starting the measurement by removing an appropriate volume of Na^+ HBS buffer and pipetting the agent directly into the sample vessel for a further 30 to 50 min. The total volume in the sample vessel was constant at 1.5 ml throughout the experiment. […] Addition of CdCl2 and nifedipine took place immediately at the start of the experiment and before addition of α-LTX, and EGTA was added both at the start of the experiment and 4 min after the addition of α-LTX. Dissolved α-LTX was present in a concentration of 300 nM in 50 mM tris-HCl, pH 8.0; BAY 44-4400 was initially dissolved in pure DMSO (stock solutions between 0.004 and 10 μg/ml). The stock solutions were adjusted to the required concentration in the Na^+ HBS buffer. The maximum amount of the active substance BAY 44-4400 which could be dissolved at a final concentration of 0.1% DMSO was found by setting up serial dilutions in Na^+ HBS.
# The data were analyzed using the Excel 98 table calculation programme. The results are derived from at least 2-4 reproduced experiments on in each case 4-8 transfected and un-transfected cells.
# [2] = 4 ng/ml added 6 min before 75 nM α-LTX
# T1 sequence (P18762 whole entry, the tested form may be a part): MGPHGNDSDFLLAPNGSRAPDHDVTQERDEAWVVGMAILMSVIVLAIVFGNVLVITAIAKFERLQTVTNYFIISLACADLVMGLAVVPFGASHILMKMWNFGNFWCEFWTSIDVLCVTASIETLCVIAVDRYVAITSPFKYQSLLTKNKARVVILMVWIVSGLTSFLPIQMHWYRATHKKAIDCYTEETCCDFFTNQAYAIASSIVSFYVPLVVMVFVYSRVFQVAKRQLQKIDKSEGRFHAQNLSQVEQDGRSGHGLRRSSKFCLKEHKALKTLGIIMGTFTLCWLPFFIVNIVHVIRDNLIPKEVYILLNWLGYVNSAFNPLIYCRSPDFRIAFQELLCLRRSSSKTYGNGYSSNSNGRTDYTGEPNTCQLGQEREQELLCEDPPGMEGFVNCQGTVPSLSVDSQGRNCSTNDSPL
smiles,measurement,setting,value
"CC(C)C[C@H]1C(=O)O[C@H](Cc2ccc(N3CCOCC3)cc2)C(=O)N(C)[C@@H](CC(C)C)C(=O)O[C@H](C)C(=O)N(C)[C@@H](CC(C)C)C(=O)O[C@H](Cc2ccc(N3CCOCC3)cc2)C(=O)N(C)[C@@H](CC(C)C)C(=O)O[C@H](C)C(=O)N1C [BAY44-4400, cyclo(-D-Lac-L-MeLeu-D-p-morpholinyl-PhLac-L-MeLeu-)]",effect on isoproterenol-induced Ca2+ increase,[1],does not interfere with the isoproterenol-induced signal transmission
same,effect on isoproterenol-induced Ca2+ increase,[1]; listed as BAY 44-4400,unaffected by BAY 44-4400
same,anthelmintic / nematicidal activity in words,nematodes,very effective nematicide
same,first small α-LTX-induced increase in [Ca2+]i,HC110-R; [2],disappeared
same,α-LTX-induced increase in [Ca2+]i in presence of substance,HC110-R; [2],44 ± 6.0 nM
same,change in [Ca2+]i after preincubation with substance alone,"HC110-R; 4 ng/ml or 400 ng/ml, 90 min preincubation, no α-LTX",no change in [Ca^2+]i
same,α-LTX-induced increase in [Ca2+]i after preincubation,"HC110-R; 4 ng/ml, 90 min preincubation, substance removed, then 75 nM α-LTX",95 ± 20.5 nM
same,plateau of [Ca2+]i after the peak,"HC110-R; 4 ng/ml, 90 min preincubation, then 75 nM α-LTX",23 ± 2.6 nM
same,"change in [Ca2+]i, BAY44-4400 given with piperazine","HC110-R; 400 ng/ml BAY44-4400 + 1 or 10 μM piperazine, untransfected and HC110-R-GFP-transfected cells",no change in [Ca^2+]i was detectable
same,α-LTX-induced increase in [Ca2+]i in presence of substance,HC110-R; 400 ng/ml added 6 min before 75 nM α-LTX,49 ± 4.2 nM
same,plateau of [Ca2+]i above initial values after the peak,"HC110-R; 400 ng/ml added 6 min before 75 nM α-LTX, 8 min after peak",11 ± 1.4 nM
same,delay of the α-LTX-induced increase,"HC110-R; 400 ng/ml versus 4 ng/ml, 90 min preincubation",12 min
same,Ca2+ response to substance alone,HC110-R; no α-LTX,does not influence the Ca^2+ concentration; also recorded: neither the very effective nematicide BAY44-4400 nor the virtually ineffective antipode PF1022-001 induces a Ca^2+ response
same,Ca2+ response to substance alone,"HC110-R; no α-LTX, listed as BAY 44-4400",in no comparable way with a change in the intracellular Ca^2+ concentration
same,Ca2+-mediated response to substance alone,"HC110-R; 100, 300 or 400 ng/ml and 1 or 10 μg/ml, 50 min, untransfected and HC110-R-GFP-transfected cells",At no concentration was a Ca^2+-mediated response detectable
same,mode of action on α-LTX signalling,HC110-R; HC110-R-transfected HEK-293 cells,acts as antagonist of α-LTX
same,first small α-LTX-induced increase in [Ca2+]i,HC110-R; incubation 6 minutes before 75 nM α-LTX,disappears
same,reduction of second α-LTX-induced increase,"HC110-R; incubation 6 minutes before 75 nM α-LTX, 15 minutes after α-LTX",85%
same,first α-LTX-induced increase in Ca2+,"HC110-R; preincubated 60 minutes before 30 minutes FURA loading, 75 nM α-LTX",complete disappearance
same,second α-LTX-induced increase in [Ca2+]i,"HC110-R; preincubated 60 minutes before 30 minutes FURA loading, 30 minutes after 75 nM α-LTX",70 nM
